Source: ChEMBL document CHEMBL2074401, “Difloxacin reverses multidrug resistance in HL-60/AR cells that overexpress the multidrug resistance-related protein (MRP) gene” (Oncol Res, 1995)

Biological target: Multidrug resistance-associated protein 1 (Homo sapiens, UniProt P33527)
Experiment: TP_TRANSPORTER: increase in Daunorubicin, Adriamycin and Vincristine intracellular accumulation (Daunorubicin: 4 ug/mL, Difloxacin: 62.5 uM) in HL-60/AR cells
Format: functional, cell-based

Multidrug resistance-associated protein 1, sequence (P33527 whole entry): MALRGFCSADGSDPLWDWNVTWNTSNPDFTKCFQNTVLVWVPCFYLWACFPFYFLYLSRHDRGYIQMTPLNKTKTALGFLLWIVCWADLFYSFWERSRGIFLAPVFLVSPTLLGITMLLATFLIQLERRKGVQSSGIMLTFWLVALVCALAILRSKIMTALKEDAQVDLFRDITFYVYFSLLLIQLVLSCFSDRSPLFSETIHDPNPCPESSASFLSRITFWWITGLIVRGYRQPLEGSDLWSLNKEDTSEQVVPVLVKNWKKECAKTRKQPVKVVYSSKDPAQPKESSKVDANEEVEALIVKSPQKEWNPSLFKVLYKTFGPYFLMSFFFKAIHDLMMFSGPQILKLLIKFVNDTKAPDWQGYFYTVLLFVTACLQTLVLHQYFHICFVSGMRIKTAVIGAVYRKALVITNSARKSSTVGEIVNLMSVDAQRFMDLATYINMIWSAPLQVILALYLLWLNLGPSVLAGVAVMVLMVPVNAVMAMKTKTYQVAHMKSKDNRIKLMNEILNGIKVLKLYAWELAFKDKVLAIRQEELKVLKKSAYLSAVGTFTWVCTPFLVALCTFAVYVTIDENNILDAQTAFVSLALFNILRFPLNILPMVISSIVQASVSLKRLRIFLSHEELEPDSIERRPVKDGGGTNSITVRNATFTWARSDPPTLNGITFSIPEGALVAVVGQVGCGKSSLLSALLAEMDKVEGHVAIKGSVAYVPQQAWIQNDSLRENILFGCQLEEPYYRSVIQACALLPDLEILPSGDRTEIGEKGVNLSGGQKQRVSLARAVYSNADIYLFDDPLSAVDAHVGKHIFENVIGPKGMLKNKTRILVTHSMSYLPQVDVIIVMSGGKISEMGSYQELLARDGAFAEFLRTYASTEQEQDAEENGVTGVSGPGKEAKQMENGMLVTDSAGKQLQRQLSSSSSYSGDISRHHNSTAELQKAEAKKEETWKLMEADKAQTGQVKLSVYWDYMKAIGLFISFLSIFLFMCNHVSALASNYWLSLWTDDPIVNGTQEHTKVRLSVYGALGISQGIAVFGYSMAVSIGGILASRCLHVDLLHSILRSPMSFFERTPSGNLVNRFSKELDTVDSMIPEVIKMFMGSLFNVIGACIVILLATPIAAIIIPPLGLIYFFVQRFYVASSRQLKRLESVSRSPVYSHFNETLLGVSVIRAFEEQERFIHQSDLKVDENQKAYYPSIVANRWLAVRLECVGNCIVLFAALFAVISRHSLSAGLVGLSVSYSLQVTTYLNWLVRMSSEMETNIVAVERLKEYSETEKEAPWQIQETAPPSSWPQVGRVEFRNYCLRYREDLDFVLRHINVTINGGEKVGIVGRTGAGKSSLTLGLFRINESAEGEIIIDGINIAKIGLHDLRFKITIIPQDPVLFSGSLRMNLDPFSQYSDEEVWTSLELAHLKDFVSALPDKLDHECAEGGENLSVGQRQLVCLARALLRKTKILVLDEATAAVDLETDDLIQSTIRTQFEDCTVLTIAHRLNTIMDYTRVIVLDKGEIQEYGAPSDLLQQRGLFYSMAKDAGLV

SMILES: CN1CCN(c2cc3c(cc2F)c(=O)c(C(=O)O)cn3-c2ccc(F)cc2)CC1 [DIFLOXACIN]
- Activity: inhibitor [1.3 to 2.9-fold]
